Source: PMC9025901, “New Genetic Bomb Trigger: Design, Synthesis, Molecular Dynamics Simulation, and Biological Evaluation of Novel BIBR1532-Related Analogs Targeting Telomerase against Non-Small Cell Lung Cancer” (Pharmaceuticals, 2022)

Key:
[1] = target: T1, telomerase (Homo sapiens, UniProt O14746); assay: TRAP / RTQ-TRAP telomerase activity assay in A549 cell-free lysates; format: biochemical; details: telomerase inhibition, mean ± SEM;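 further: telomerase activity measured in cell-free extracts of human A549 epithelial lung carcinoma cells, tested across a range of inhibitor concentrations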
T1 construct: A549 cells (human epithelial cell lung carcinoma, ATCC, Manassas, VA) were lysed in; host or cells: A549 cell lysate (CHAPS extract, 5 µg total protein)
T1 sequence (O14746 whole entry): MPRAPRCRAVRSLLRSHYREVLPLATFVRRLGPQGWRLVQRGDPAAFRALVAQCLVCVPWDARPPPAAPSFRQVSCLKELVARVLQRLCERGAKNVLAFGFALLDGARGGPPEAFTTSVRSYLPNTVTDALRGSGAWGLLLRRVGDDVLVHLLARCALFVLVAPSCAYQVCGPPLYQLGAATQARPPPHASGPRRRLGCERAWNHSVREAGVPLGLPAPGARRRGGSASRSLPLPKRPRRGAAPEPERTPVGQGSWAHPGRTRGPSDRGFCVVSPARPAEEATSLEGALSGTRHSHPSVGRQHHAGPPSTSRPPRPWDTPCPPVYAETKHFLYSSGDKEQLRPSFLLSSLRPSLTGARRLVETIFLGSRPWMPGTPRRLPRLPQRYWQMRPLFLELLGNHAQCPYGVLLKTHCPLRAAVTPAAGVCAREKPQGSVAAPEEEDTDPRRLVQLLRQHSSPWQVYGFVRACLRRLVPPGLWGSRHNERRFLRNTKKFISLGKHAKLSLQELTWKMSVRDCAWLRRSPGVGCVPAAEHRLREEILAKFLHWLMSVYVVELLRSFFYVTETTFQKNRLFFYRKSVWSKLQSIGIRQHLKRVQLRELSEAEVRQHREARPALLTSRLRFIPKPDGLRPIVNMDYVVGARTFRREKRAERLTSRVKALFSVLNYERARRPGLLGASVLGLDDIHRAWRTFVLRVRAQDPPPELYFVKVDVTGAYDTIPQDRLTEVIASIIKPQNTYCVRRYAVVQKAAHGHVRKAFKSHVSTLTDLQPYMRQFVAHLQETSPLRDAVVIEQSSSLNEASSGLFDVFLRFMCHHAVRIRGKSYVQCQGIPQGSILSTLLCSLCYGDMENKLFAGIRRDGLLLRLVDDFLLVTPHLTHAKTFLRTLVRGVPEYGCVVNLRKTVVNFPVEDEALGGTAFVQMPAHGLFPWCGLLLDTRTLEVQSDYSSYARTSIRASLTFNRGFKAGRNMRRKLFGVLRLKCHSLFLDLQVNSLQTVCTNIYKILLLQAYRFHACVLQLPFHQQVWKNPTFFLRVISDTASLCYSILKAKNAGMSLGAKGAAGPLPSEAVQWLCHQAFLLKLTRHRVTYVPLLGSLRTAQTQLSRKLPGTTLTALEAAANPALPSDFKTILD
T1 sequence (O60832 whole entry partner): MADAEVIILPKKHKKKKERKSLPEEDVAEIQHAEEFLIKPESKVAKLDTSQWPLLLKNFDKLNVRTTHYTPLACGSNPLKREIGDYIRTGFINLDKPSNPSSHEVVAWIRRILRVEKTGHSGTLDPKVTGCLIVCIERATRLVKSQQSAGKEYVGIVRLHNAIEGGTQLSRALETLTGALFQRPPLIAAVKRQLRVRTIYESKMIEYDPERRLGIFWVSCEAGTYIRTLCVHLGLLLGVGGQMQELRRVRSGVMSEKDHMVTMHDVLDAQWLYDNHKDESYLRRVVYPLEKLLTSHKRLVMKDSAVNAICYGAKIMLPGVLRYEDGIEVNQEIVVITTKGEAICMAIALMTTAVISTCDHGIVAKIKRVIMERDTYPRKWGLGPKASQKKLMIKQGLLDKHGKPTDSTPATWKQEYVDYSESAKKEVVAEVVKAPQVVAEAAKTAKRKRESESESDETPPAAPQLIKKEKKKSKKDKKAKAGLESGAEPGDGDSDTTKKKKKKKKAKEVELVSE
T1 sequence (Q9NX24 whole entry partner): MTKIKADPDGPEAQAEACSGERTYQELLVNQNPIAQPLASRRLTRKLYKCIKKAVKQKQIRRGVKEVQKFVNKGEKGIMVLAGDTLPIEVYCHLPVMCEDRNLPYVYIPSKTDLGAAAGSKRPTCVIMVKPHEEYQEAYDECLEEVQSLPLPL
T1 sequence (Q9NPE3 whole entry partner): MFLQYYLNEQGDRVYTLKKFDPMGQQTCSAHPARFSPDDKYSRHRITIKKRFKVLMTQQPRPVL
T1 sequence (Q9NY12 whole entry partner): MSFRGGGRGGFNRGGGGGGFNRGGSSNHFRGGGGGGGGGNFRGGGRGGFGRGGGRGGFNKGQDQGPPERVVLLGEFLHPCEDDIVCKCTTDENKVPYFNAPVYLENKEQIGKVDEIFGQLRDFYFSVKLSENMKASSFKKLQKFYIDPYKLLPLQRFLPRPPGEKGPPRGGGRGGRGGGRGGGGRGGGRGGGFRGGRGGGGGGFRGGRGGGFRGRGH
T1 sequence (Q9BUR4 whole entry partner): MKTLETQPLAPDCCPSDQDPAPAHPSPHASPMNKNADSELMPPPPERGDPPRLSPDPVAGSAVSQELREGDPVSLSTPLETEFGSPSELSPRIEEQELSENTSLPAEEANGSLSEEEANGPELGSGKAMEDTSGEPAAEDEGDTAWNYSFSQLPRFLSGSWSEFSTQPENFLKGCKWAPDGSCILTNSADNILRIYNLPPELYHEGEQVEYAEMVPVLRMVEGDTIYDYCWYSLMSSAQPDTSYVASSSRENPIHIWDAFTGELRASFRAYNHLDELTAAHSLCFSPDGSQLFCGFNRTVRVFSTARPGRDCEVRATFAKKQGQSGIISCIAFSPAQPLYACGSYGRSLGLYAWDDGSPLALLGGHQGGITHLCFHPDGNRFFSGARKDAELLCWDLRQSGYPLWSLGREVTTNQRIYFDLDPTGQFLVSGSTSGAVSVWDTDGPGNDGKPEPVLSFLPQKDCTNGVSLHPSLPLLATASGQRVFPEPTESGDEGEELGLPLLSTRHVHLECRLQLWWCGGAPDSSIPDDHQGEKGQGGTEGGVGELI

[2] = target: T2, telomerase inside living cancer cells A549 (Homo sapiens, UniProt O14746); assay: Living-cell TRAP assay, A549; format: cell-based; details: percent of control cells, 10 µM, 48 h
T2 construct: host or cells: A549
T2 sequence (O14746 whole entry): as the sequence (O14746 whole entry) above
T2 sequence (O60832 whole entry partner): as the sequence (O60832 whole entry partner) above
T2 sequence (Q9NX24 whole entry partner): as the sequence (Q9NX24 whole entry partner) above
T2 sequence (Q9NPE3 whole entry partner): as the sequence (Q9NPE3 whole entry partner) above
T2 sequence (Q9NY12 whole entry partner): as the sequence (Q9NY12 whole entry partner) above
T2 sequence (Q9BUR4 whole entry partner): as the sequence (Q9BUR4 whole entry partner) above

[3] = target: T3, telomerase inside living cancer cells HCC44 (Homo sapiens, UniProt O14746); assay: Living-cell TRAP assay, HCC44; format: cell-based; details: percent of control cells, 10 µM, 48 h
T3 construct: host or cells: HCC44
T3 sequence (O14746 whole entry): as the sequence (O14746 whole entry) above
T3 sequence (O60832 whole entry partner): as the sequence (O60832 whole entry partner) above
T3 sequence (Q9NX24 whole entry partner): as the sequence (Q9NX24 whole entry partner) above
T3 sequence (Q9NPE3 whole entry partner): as the sequence (Q9NPE3 whole entry partner) above
T3 sequence (Q9NY12 whole entry partner): as the sequence (Q9NY12 whole entry partner) above
T3 sequence (Q9BUR4 whole entry partner): as the sequence (Q9BUR4 whole entry partner) above

[4] = target: T4, telomerase inside living cancer cells NCI-H23 (Homo sapiens, UniProt O14746); assay: Living-cell TRAP assay, NCI-H23; format: cell-based; details: percent of control cells, 10 µM, 48 h
T4 construct: host or cells: NCI-H23
T4 sequence (O14746 whole entry): as the sequence (O14746 whole entry) above
T4 sequence (O60832 whole entry partner): as the sequence (O60832 whole entry partner) above
T4 sequence (Q9NX24 whole entry partner): as the sequence (Q9NX24 whole entry partner) above
T4 sequence (Q9NPE3 whole entry partner): as the sequence (Q9NPE3 whole entry partner) above
T4 sequence (Q9NY12 whole entry partner): as the sequence (Q9NY12 whole entry partner) above
T4 sequence (Q9BUR4 whole entry partner): as the sequence (Q9BUR4 whole entry partner) above

| IC50 [1] | IC90 [1] | melting point | % Telomerase Activity in Cancer Cells [2] | % Telomerase Activity in Cancer Cells [3] | % Telomerase Activity in Cancer Cells [4] | Compound |
| --- | --- | --- | --- | --- | --- | --- |
| 53.6 ± 1.8 µM | 751 µM |  |  |  |  | COc1ccc(/C=C(\C#N)C(=O)Nc2sc3c(c2C#N)CCCC3)cc1OC [Compound 26b, (2E)-2-Cyano-N-(3-cyano-4,5,6,7-tetrahydro-1-benzothiophen-2-yl)-3-(3,4-dimethoxyphenyl)prop-2-enamide] |
| 25.4 ± 1 µM | 282 µM | 219 to 221 °C |  |  |  | N#C/C(=C\c1ccc2c(c1)OCO2)C(=O)Nc1sc2c(c1C#N)CCC2 [Compound 38a, (2E)-3-(2H-1,3-Benzodioxol-5-yl)-2-cyano-N-{3-cyano-4H,5H,6H-cyclopenta[b]thiophen-2-yl}prop-2-enamide] |
| 23.5 ± 0.9 µM | 137 ± 2.6 µM | 286 to 288 °C |  |  |  | N#C/C(=C\c1cccc2c1OCO2)C(=O)Nc1sc2c(c1C#N)CCC2 [Compound 37a, (2E)-3-(2H-1,3-Benzodioxol-4-yl)-2-cyano-N-{3-cyano-4H,5H,6H-cyclopenta[b]thiophen-2-yl}prop-2-enamide] |
| 5.1 ± 0.2 µM | 31.1 ± 1.1 µM |  |  |  |  | N#C/C(=C\c1cccc2ccccc12)C(=O)Nc1sc2c(c1C#N)CCC2 [Compound 35a, (2E)-2-Cyano-N-{3-cyano-4H,5H,6H-cyclopenta[b]thiophen-2-yl}-3-(naphthalen-1-yl)prop-2-enamide] |
| 97.8 ± 2.6 µM | 174 µM | 226 to 228 °C |  |  |  | N#C/C(=C\c1cccc2c1OCO2)C(=O)Nc1sc2c(c1C#N)CCCC2 [Compound 37b, (2E)-3-(2H-1,3-Benzodioxol-4-yl)-2-cyano-N-(3-cyano-4,5,6,7-tetrahydro-1-benzothiophen-2-yl)prop-2-enamide] |
| 12.5 ± 0.6 µM | 138 µM | 376 to 378 °C |  |  |  | N#C/C(=C\c1ccc(Cl)c(Cl)c1)C(=O)Nc1sc2c(c1C#N)CCCC2 [Compound 27b, (2E/2Z)-2-Cyano-N-(3-cyano-4,5,6,7-tetrahydro-1-benzothiophen-2-yl)-3-(3,4-dichlorophenyl)prop-2-enamide] |
| 110 ± 3.7 µM | 181 µM | 220 to 222 °C |  |  |  | COc1cc(/C=C(\C#N)C(=O)Nc2sc3c(c2C#N)CCCC3)ccc1OCc1ccccc1 [Compound 32b, (2E)-3-[4-(Benzyloxy)-3-methoxyphenyl]-2-cyano-N-(3-cyano-4,5,6,7-tetrahydro-1-benzothiophen-2-yl)prop-2-enamide] |
| 40.3 ± 1.7 µM | 339 µM | 204 to 206 °C |  |  |  | N#C/C(=C\c1ccc2c(c1)OCO2)C(=O)Nc1sc2c(c1C#N)CCCC2 [Compound 38b, (2E)-3-(2H-1,3-Benzodioxol-5-yl)-2-cyano-N-(3-cyano-4,5,6,7-tetrahydro-1-benzothiophen-2-yl)prop-2-enamide] |
| 5.9 ± 0.2 µM | 119 ± 4.6 µM | 246 to 248 °C |  |  |  | N#C/C(=C\c1ccc(N2CCOCC2)cc1)C(=O)Nc1sc2c(c1C#N)CCCC2 [Compound 30b, (2E)-2-Cyano-N-(3-cyano-4,5,6,7-tetrahydro-1-benzothiophen-2-yl)-3-[4-(morpholin-4-yl)phenyl]prop-2-enamide] |
| 5.3 ± 0.2 µM | 18.6 ± 0.9 µM |  |  |  |  | N#C/C(=C\c1cccc2ccccc12)C(=O)Nc1sc2c(c1C#N)CCCC2 [Compound 35b, (2E)-2-Cyano-N-(3-cyano-4,5,6,7-tetrahydro-1-benzothiophen-2-yl)-3-(naphthalen-1-yl)prop-2-enamide] |
| 2.5 ± 0.1 µM | 9.5 ± 0.3 µM | 284 to 286 °C |  |  |  | N#C/C(=C\c1c[nH]c2ccccc12)C(=O)Nc1sc2c(c1C#N)CCC2 [Compound 39a, (2E)-2-Cyano-N-{3-cyano-4H,5H,6H-cyclopenta[b]thiophen-2-yl}-3-(1H-indol-3-yl)prop-2-enamide] |

More lines, now with the values behind:

| Compound | IC50 [1] | IC90 [1] | melting point | % Telomerase Activity in Cancer Cells [2] | % Telomerase Activity in Cancer Cells [3] | % Telomerase Activity in Cancer Cells [4] |
| --- | --- | --- | --- | --- | --- | --- |
| COc1ccc(/C=C(\C#N)C(=O)Nc2sc3c(c2C#N)CCC3)cc1OC [Compound 26a, (2E)-2-Cyano-N-{3-cyano-4H,5H,6H-cyclopenta[b]thiophen-2-yl}-3-(3,4-dimethoxyphenyl)prop-2-enamide] | 13.5 ± 0.6 µM | 154 µM |  |  |  |  |
| Cc1nn(-c2ccccc2)cc1/C=C(\C#N)C(=O)Nc1sc2c(c1C#N)CCCC2 [Compound 33b, (2E)-2-Cyano-N-(3-cyano-4,5,6,7-tetrahydro-1-benzothiophen-2-yl)-3-(3-methyl-1-phenyl-1H-pyrazol-4-yl)prop-2-enamide] | 178 ± 3.3 µM | 574 µM | 256 to 258 °C |  |  |  |
| N#C/C(=C\c1ccc2ccccc2c1)C(=O)Nc1sc2c(c1C#N)CCC2 [Compound 36a, (2E)-2-Cyano-N-{3-cyano-4H,5H,6H-cyclopenta[b]thiophen-2-yl}-3-(naphthalen-2-yl)prop-2-enamide] | 5.2 ± 0.2 µM | 34.9 ± 1.6 µM |  |  |  |  |
| N#C/C(=C\c1ccc(N2CCCCC2)cc1)C(=O)Nc1sc2c(c1C#N)CCC2 [Compound 29a, (2E)-2-Cyano-N-{3-cyano-4H,5H,6H-cyclopenta[b]thiophen-2-yl}-3-[4-(piperidin-1-yl)phenyl]prop-2-enamide] | 1.7 ± 0.04 µM | 6.3 ± 0.3 µM |  | 22.1 ± 4.8% | 66.1 ± 2.4% | 28.2 ± 3.9% |
| CN1CCN(c2ccc(/C=C(\C#N)C(=O)Nc3sc4c(c3C#N)CCC4)cc2)CC1 [Compound 31a, (2E)-2-Cyano-N-{3-cyano-4H,5H,6H-cyclopenta[b]thiophen-2-yl}-3-[4-(4-methylpiperazin-1-yl)phenyl]prop-2-enamide] | 98.5 ± 3.8 µM | 200 µM |  |  |  |  |
| COc1cc(/C=C(\C#N)C(=O)Nc2sc3c(c2C#N)CCC3)ccc1OCc1ccccc1 [Compound 32a, (2E)-3-[4-(Benzyloxy)-3-methoxyphenyl]-2-cyano-N-{3-cyano-4H,5H,6H-cyclopenta[b]thiophen-2-yl}prop-2-enamide] | 6.4 ± 0.2 µM | 177 µM | 233 to 235 °C |  |  |  |
| N#C/C(=C\c1c[nH]nc1-c1ccccc1)C(=O)Nc1sc2c(c1C#N)CCCC2 [Compound 34b, (2E)-2-Cyano-N-(3-cyano-4,5,6,7-tetrahydro-1-benzothiophen-2-yl)-3-(3-phenyl-1H-pyrazol-4-yl)prop-2-enamide] | 38.8 ± 1 µM | 284 ± 6.6 µM | 263 to 265 °C |  |  |  |
| CN1CCN(c2ccc(/C=C(\C#N)C(=O)Nc3sc4c(c3C#N)CCCC4)cc2)CC1 [Compound 31b, (2E)-2-Cyano-N-(3-cyano-4,5,6,7-tetrahydro-1-benzothiophen-2-yl)-3-[4-(4-methylpiperazin-1-yl)phenyl]prop-2-enamide] | 89.9 ± 3.6 µM | 165 µM | 257 to 259 °C |  |  |  |
| N#C/C(=C\c1ccc(N2CCCCC2)cc1)C(=O)Nc1sc2c(c1C#N)CCCC2 [Compound 29b, (2E)-2-Cyano-N-(3-cyano-4,5,6,7-tetrahydro-1-benzothiophen-2-yl)-3-[4-(piperidin-1-yl)phenyl]prop-2-enamide] | 4.8 ± 0.2 µM | 32.8 ± 1.5 µM | 262 to 264 °C |  |  |  |
| N#C/C(=C\c1cccc(Cl)c1Cl)C(=O)Nc1sc2c(c1C#N)CCCC2 [Compound 28b, (2E)-2-Cyano-N-(3-cyano-4,5,6,7-tetrahydro-1-benzothiophen-2-yl)-3-(2,3-dichlorophenyl)prop-2-enamide] | 8.3 ± 0.3 µM | 57.4 µM | 232 to 234 °C |  |  |  |
| N#C/C(=C\c1c[nH]nc1-c1ccccc1)C(=O)Nc1sc2c(c1C#N)CCC2 [Compound 34a, (2E)-2-Cyano-N-{3-cyano-4H,5H,6H-cyclopenta[b]thiophen-2-yl}-3-(3-phenyl-1H-pyrazol-4-yl)prop-2-enamide] | 189 ± 6.4 µM | 1080 µM | 226 to 228 °C |  |  |  |
| Cc1nn(-c2ccccc2)cc1/C=C(\C#N)C(=O)Nc1sc2c(c1C#N)CCC2 [Compound 33a, (2E)-2-Cyano-N-{3-cyano-4H,5H,6H-cyclopenta[b]thiophen-2-yl}-3-(3-methyl-1-phenyl-1H-pyrazol-4-yl)prop-2-enamide] | 205 ± 4 µM | 643 µM |  |  |  |  |
| N#C/C(=C\c1ccc(C(F)(F)F)cc1)C(=O)Nc1sc2c(c1C#N)CCCC2 [Compound 25b, (2E)-2-Cyano-N-(3-cyano-4,5,6,7-tetrahydro-1-benzothiophen-2-yl)-3-[4-(trifluoromethyl)phenyl]prop-2-enamide] | 25.8 ± 1 µM | 140 ± 4.7 µM | 225 to 227 °C |  |  |  |
| N#C/C(=C\c1ccc(N2CCOCC2)cc1)C(=O)Nc1sc2c(c1C#N)CCC2 [Compound 30a, (2E)-2-Cyano-N-{3-cyano-4H,5H,6H-cyclopenta[b]thiophen-2-yl}-3-[4-(morpholin-4-yl)phenyl]prop-2-enamide] | 5.2 ± 0.2 µM | 112 ± 3.6 µM |  |  |  |  |
| N#C/C(=C\c1cccc(Cl)c1Cl)C(=O)Nc1sc2c(c1C#N)CCC2 [Compound 28a, (2E/2Z)-2-Cyano-N-{3-cyano-4H,5H,6H-cyclopenta[b]thiophen-2-yl}-3-(2,3-dichlorophenyl)prop-2-enamide] | 6.7 ± 0.1 µM | 67.8 µM | 302 to 304 °C |  |  |  |
| N#C/C(=C\c1ccc(C(F)(F)F)cc1)C(=O)Nc1sc2c(c1C#N)CCC2 [Compound 25a, (2E/2Z)-2-Cyano-N-{3-cyano-4H,5H,6H-cyclopenta[b]thiophen-2-yl}-3-[4-(trifluoromethyl)phenyl]prop-2-enamide] | 20.9 ± 0.7 µM | 109 ± 3.2 µM | 354 to 356 °C |  |  |  |
| N#C/C(=C\c1ccc(Cl)c(Cl)c1)C(=O)Nc1sc2c(c1C#N)CCC2 [Compound 27a, (2E/2Z)-2-Cyano-N-{3-cyano-4H,5H,6H-cyclopenta[b]thiophen-2-yl}-3-(3,4-dichlorophenyl)prop-2-enamide] | 6.5 ± 0.3 µM | 164 µM | 329 to 331 °C |  |  |  |
